Series [1] can be described thus: Acid stability (acid-mediated hydrolytic decomposition, simulated stomach conditions). The settings on record: 0.1 N hydrochloric acid at 25° C. The series is classed as physicochemical. As for the experimental part:
The compound of Example 3 was tested for stability towards acid-mediated hydrolytic decomposition employing a test designed to simulate stomach conditions. The compound was incubated at an initial concentration of 0.27 mg/mL in dilute hydrochloric acid at pH 1 for 72 hours at 37° C. HPLC was run immediately for t=0 and at intervals up to approximately 72 hours.
In contrast, the phosphoramidate of 2′,3′-dideoxy-adenosine (Compound 1093, PCT/GB9600580) had entirely decomposed by t=13 hours and 2′,3′-didehydro-2′,3′-dideoxy-adenosine (Compound 1001, PCT/GB96/00580) had entirely decomposed at t=0 in 0.1 N hydrochloric acid at 25° C.

In the case of `Nc1ncnc2c1ccn2[C@@H]1C=C[C@H](CO)C1` [Example 1, (+)-(1R, cis)-4-[4-Amino-7H-pyrrolo(2,3-d)pyrimidin-7-yl]-2-cyclopentene-1-methanol], the melting point was 165 to 168 °C.
With `Nc1ncnc2c1ncn2[C@H]1C=C[C@@H](CO)O1` [Compound 1001, 2′,3′-didehydro-2′,3′-dideoxy-adenosine], in series [1], the “time t at which entirely decomposed” value is 0 h.

The values above are taken from US20030045508A1, “(1r,cis)-4-(4-amino-7h-pyrrolo'2,3-i(d) pyrimidine-7-yl)-2-cyclopentene-1-methanol derivatives as antiviral” (priority 2002, published 2003).
